Columns and labels:
Assay type in all cases: physicochemical
[1] = Emulsion droplet sizes from cryo-TEM (CTEM) images
Method: For certain applications, further size separation may be desired. For these applications, we could also use centrifugation to fractionate the emulsion and isolate emulsions of a desired size range. To accomplish such separation, a 1.5 mM K40rL20 emulsion (φ=0.2) that had been passed through the microfluidic homogenizer for six passes (N=6) was placed in a desktop centrifuge set to a low speed of 3,500 rpm (revolutions per minute) for 4 hours. Due to the differences in mass densities of the droplet structures with respect to the continuous liquid phase, the larger droplets rose to the top as a plug more rapidly and could be separated out easily from the extremely dilute suspension of smaller droplets below (i.e. the remnants). We were able to separate out larger droplets that had diameters greater than 300 nm. The remnant suspension had droplet diameters less than 300 nm, therefore, a higher speed centrifuge was needed to further fractionate the sizes of the droplets. The remnant suspension was placed in an ultracentrifuge and centrifuged […] at 20,000 rpm.
A 1.5 mM K40rL20 emulsion (prepared as above) was centrifuged in a 15 mL plastic centrifuge tube for 24 h at 3,500 rpm using an IEC HN-S tabletop centrifuge. A 0.5 mm plug formed, and was separated from the remnants. A plug was formed at the top of the tube (droplet sizes >300 nm, by cryo-TEM), due the different densities of silicone oil and water (0.973 g/mL for 10 cSt PDMS silicone oil vs. 1.0 g/mL for water). The plug was isolated from the rest of the sample, designated as primary remnants, and these primary remnants were further fractionated at 20,000 rpm for 4 hrs using a Beckman L8-55 ultracentrifuge. A plug formed on the top of the suspension (droplet sizes ranging from 30 nm to 200 nm, by cryo-TEM) along with droplets remaining in suspension as secondary remnants (droplet sizes ranging from 10 nm to 30 nm, by cryo-TEM).
Each emulsion sample was diluted tenfold with DI water prior to imaging. An aliquot of each sample (5 μL) was then placed on a carbon grid. The grid was loaded into a Vitrobot (FEI) automated vitrification device for automated sample blotting and vitrification in liquid ethane. The grid was stored under liquid nitrogen and then placed, using a cold stage, in a Phillips Tecnai F20 electron microscope with an accelerating voltage of 120 kV. Images were obtained on a Teitz SCX slow-scan CCD detector coupled to the Leginon software package.
PDMS silicone oil (10 cSt) was added to give the desired volume fraction A of oil to the continuous phase (0.05<φ<0.50). A microscale emulsion (i.e. “premix” emulsion) was prepared by either mixing for 1 minute using a handheld homogenizer (IKA Ultra-Turrax T8 with the S8N-8G dispersing element) or by mixing for 10 seconds using a handheld ultrasonic tip homogenizer (Cole-Parmer 4710 Series Model ASI at an output of 35-40%). This emulsion was then passed through a M-110S Microfluidizer® Processor with a 75 μm stainless steel/ceramic interaction chamber and an input air pressure p=130 psi. The emulsion was collected at the product outlet, and then passed through the microfluidic homogenizer repeatedly for a total of six passes (N=6), which decreased the average droplet radius (e.g. of the single droplets in a simple emulsion and of the outer and inner droplets in a double emulsion) and increased the monodispersity of the droplets in the emulsions. A similar protocol was used for emulsions generated using other block copolypeptide surfactants (Table 1. FIGS. 7A-7C). The ratio given by the inner droplet radius divided by the outer droplet radius (labeled as “I/O ratio”) was relatively uniform for different hydrophobic chain lengths at approximately 0.5 (Table 1, FIG. 7D). Other amphiphilic block copolypeptides, where either the lysine or leucine domains were substituted with different hydrophilic or hydrophobic residues, respectively, were also found to form double emulsions (FIGS. 8A-8D).

[2] = Critical aggregation concentration by pyrene fluorescence; details: pyrene fluorescence at 20° C.
[3] = Oil/water interfacial tension, Du Nouy ring method; details: 10 cSt PDMS / 0.1 mM block copolypeptide solution, pull rate 0.01 mm/s, 25° C.
[4] = Emulsion droplet size by dynamic light scattering (DLS); details: N=6, p=130 psi, φ=0.20
Method: The diameters of emulsion droplets were estimated by dynamic light scattering (DLS) with a Photocor-FC board and software. The samples were diluted to obtain an intensity reading of between 1×10^5 and 6×10^5. Each measurement was performed at a scattering angle of 90° for 500 seconds, with linear channel spacing and an adjustable baseline. The fitting procedure used was cumulant analysis with an adjustable baseline to fit the data and calculate average droplet radii.

[5] = Emulsification activity, emulsion type and stability
Method: The freeze-dried K40rL10 copolypeptide was first dissolved in de-ionized water at the desired concentration. The range of block copolypeptide concentrations, C, varied from 1.0×10^−4 mM to 1.7 mM. Silicone oil (10 cSt, Gelest PDMS) was added to give the desired volume fraction φ of oil to the continuous phase (0.01≦φ≦0.8). A premix emulsion was prepared by applying shear using either a handheld homogenizer (IKA Ultra-Turrax T8 with the S8N-8G dispersing element) or a handheld ultrasonic homogenizer (Cole-Palmer 4710 Series Model ASI at an output of 35-40%). This premix emulsion was then passed through a M-110S Microfluidizer® Processor with a 75 μm stainless steel/ceramic interaction chamber and an input air pressure p=130 psi. The emulsion was collected at the product outlet of the microfluidic homogenizer, and then passed through the microfluidic homogenizer five more passes (N=6 total), which decreased the average droplet radius and increased the monodispersity of the sample. We have formed double emulsions of copolypeptide, water, and various oils other than 10 cSt and 100 cSt silicone oil, including soybean oil and methyl oleate.
Diblock copolypeptides were screened for emulsification activity by adding PDMS silicone oil to aqueous Kx(rac-L)y solutions (Table 1, FIGS. 2A-2B, 11A). […]

[6] = sample fractionated from larger droplets by centrifugation followed by ultracentrifugation

Substance: Poly(L-lysine-HBr)40-b-poly(rac-leucine)20 [K40(rac-L)20]
- droplet diameters of remnant suspension after low speed centrifugation ([1]; 1.5 mM emulsion, 3,500 rpm): less than 300 nm
- droplet diameters ([1]; after passage six times through microfluidic homogenizer): ten to a few hundred
- Inner/Outer Diameter Ratio ([1]; average of at least 50 droplets from CTEM, N=6, p=130 psi, C=1.0 mM, φ=0.20): 0.57
- Droplet Diameter (nm) ([1]; outer droplets, average of at least 50 droplets from CTEM, microfluidic homogenizer N=6, p=130 psi, C=1.0 mM, φ=0.20): 120 nm
- Droplet Diameter (nm) [1, 6]: 60 nm
- Inner/Outer Diameter Ratio [1, 6]: 0.45
- smallest double emulsion droplets, diameter ([1]; ultrasonic homogenization): ca. 400 nm
- CAC [2]: 970 nM
- Interfacial Tension (dyne/cm) [3]: 25.3 dyne/cm
- average droplet radius ([4]; copolypeptide concentration 0.1 mM): about 400 nm
- average droplet radius ([4]; copolypeptide concentration 1.5 mM): about 160 nm
- type of emulsion formed ([5]; PDMS silicone oil, microscopy / cryo-TEM): formation of double emulsions
- emulsification of other immiscible liquids ([5]; dodecane, soybean oil, methyl oleate, 1 mM in water): gave emulsions

— patent US8283308B2, “Copolymer-stabilized emulsions” (The Regents of the University of California, priority 2007, dated 2012)
